“Also recorded” adds a separate entry of the source.
Tests used:
[1] = tested on: B16-F10 syngeneic model; assay: Subcutaneous B16-F10 syngeneic model, tumor growth; format: in vivo, C57BL/6 mice
Experimental: In order to evaluate the in vivo efficacy of SIS3 and novel compounds of the present invention, a study has been conducted in treatment of the subcutaneous B16-F10 syngeneic models.
(§1) • Animal species and strain: C57BL/6 mice • History of treatment: Naive • Sex, age and weight: Female, 6-8 weeks • Breeder/supplier: Shanghai SLAC Laboratory Animal Co. Ltd • Adaptation: At least 7 days • Room: SPF Room • Room temperature: 20-26° C. • Room relative humidity: 40-70% • Light cycle: Fluorescent light for 12-hour light (08:00-20:00) and 12-hour dark • Animal hosting: 2-5 mice/cage each group • Food: Free access to food • Water: Free access to water (municipal tap water filtered by reverse osmosis or high-pressure sterilizer)
B16-F10 cell was maintained at 37° C. under 5% CO2 in DMEM medium supplemented with 10% FBS and were subsequently cultured within 10 passages before inoculated into the mice.
(§2) B16-F10 cells (3×10^5 in 100 μL of serum-free medium) were inoculated to each of C57BL/6 mice via s.c. under anesthesia by 3-4% isoflurane. Each group contains 15 mice.
(§3) When average tumor volume reached 35-60 mm^3, 15 mice were randomized into group 6. The day of inoculation was denoted as day 0.
Tumor dimensions were measured on Day 4, 5, 6, 8, 11, 13, 15 and 18, after inoculation in 2 dimensions with calipers.
When required, tumor volume was measured daily. The tumor volume (V) was calculated as follows: V=(length×width^2)/2.
The individual relative tumor volume (RTV) was calculated as follows: RTV=Vt/V0, where Vt was the volume on each day, and V0 was the volume at the beginning of the treatment.
Tumor growth inhibition (TGI), TGI=(1−(Ti−T0)/(Ci−C0))×100%; Ti and Ci as the mean tumor volumes of the treatment and control groups on the measurement day; T0 and C0 as the mean tumor volumes of the treatment and control groups on day 0
(§4) Results were expressed as mean±S.E.M. Comparisons between two groups were made by Dunnett's multi-comparison test, p<0.05 were considered as significant.

[2] = Body weight of tumor bearing mice in the B16-F10 syngeneic model; format: in vivo, C57BL/6 mice
Experimental: as §1, §2, §3
Body weight was measured on Day 4, 5, 6, 8, 11, 13, 15 and 18 after inoculation. When required, body weight was measured daily.
as §4

[3] = target: T1, CYP2C9 (Homo sapiens, UniProt P11712); assay: Cytochrome P450 inhibition assay, human liver microsomes, CYP2C9; format: in vitro ADME; conditions: probe diclofenac, diclofenac substrate, read-out: CYP2C9 inhibition (HLM, diclofenac substrate) Inhibition (%)
T1 construct: CONSTRUCT DETAILS: Microsomes; from tissue; host or cells: human liver microsomes
T1 sequence (P11712 whole entry): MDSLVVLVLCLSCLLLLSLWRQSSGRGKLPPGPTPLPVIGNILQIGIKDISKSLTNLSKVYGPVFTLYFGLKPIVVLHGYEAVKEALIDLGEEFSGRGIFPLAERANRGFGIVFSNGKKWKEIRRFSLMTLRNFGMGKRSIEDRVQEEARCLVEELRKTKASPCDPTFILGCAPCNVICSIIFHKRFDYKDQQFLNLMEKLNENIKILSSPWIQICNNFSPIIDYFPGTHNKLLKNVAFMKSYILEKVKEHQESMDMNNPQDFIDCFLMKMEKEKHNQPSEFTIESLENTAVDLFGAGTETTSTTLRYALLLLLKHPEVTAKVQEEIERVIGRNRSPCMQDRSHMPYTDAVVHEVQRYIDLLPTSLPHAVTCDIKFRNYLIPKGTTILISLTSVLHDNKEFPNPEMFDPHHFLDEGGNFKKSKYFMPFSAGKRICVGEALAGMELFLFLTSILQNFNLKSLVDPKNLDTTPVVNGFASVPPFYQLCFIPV
Text: • SUBSTRATE: Diclofenac

[4] = target: T2, CYP2D6 (Homo sapiens, UniProt P10635); assay: Cytochrome P450 inhibition assay, human liver microsomes, CYP2D6; format: in vitro ADME; conditions: probe dextromethorphan, dextromethorphan substrate, read-out: CYP2D6 inhibition (HLM, dextromethorphan substrate) Inhibition (%)
T2 construct: CONSTRUCT DETAILS: Microsomes; from tissue; host or cells: human liver microsomes
T2 sequence (P10635 whole entry): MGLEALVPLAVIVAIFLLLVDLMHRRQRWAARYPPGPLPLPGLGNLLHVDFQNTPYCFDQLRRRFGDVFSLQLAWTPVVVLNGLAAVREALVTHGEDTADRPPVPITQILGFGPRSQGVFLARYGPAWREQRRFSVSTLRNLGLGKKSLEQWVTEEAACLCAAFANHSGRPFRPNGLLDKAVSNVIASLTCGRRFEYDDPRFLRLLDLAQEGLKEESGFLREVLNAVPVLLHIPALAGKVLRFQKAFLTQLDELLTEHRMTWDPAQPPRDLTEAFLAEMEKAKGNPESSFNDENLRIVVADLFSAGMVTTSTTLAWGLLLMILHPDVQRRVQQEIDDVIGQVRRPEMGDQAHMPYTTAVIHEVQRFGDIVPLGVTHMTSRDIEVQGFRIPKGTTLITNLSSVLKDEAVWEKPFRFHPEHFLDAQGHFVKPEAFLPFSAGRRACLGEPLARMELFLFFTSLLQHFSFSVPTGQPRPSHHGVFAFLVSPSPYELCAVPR

[5] = tested on: B16-F10 syngeneic model; assay: Subcutaneous B16-F10 syngeneic model, tumor growth; format: in vivo, C57BL/6 mice; conditions: 30 mg/kg q.d. * 3W i.p.
[6] = Aqueous solubility assay (shake-flask, LC/MS/MS); format: physicochemical
[7] = target: CYP3A4 (Homo sapiens, UniProt P08684); assay: Cytochrome P450 inhibition assay, human liver microsomes, CYP3A4; conditions: human
CYP3A4, sequence (P08684 whole entry): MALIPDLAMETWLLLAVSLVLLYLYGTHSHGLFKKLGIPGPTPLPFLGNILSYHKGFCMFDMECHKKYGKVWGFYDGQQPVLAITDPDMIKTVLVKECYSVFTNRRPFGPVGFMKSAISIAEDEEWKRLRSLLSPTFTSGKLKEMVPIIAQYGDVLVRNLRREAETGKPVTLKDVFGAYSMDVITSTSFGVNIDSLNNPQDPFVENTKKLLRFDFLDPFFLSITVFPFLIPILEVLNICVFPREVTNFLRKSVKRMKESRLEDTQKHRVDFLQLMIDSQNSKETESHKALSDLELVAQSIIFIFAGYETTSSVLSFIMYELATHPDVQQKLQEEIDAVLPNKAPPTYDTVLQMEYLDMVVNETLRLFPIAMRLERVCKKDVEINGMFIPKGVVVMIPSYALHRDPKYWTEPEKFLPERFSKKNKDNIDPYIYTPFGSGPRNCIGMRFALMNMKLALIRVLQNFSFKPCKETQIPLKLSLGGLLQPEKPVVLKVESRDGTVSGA

[8] = 100 mg/kg q.d. * 3W i.p. (group 6), Day 15
[9] = 100 mg/kg q.d. * 3W i.p. (group 6), Day 18
[10] = 100 mg/kg q.d. * 3W i.p. (group 6, randomized at tumor volume 35-60 mm^3), Day 8
[11] = single agent, i.p. QD*3 weeks, SIS3 10 and 30 mg/kg, MO-00005 10, 30 and 100 mg/kg, vs vehicle

SMILES: COc1cc2c(cc1OC)CN(C(=O)/C=C/c1c(-c3ccccc3)nc3ccccn13)CC2 [Compound 8, (E)-1-(6,7-dimethoxy-3,4-dihydroisoquinolin-2(1H)-yl)-3-(2-phenylimidazo[1,2-a]pyridin-3-yl)prop-2-en-1-one]
- Tumor growth inhibition (%) TGI ([1]; 100 mg/kg q.d. * 3W i.p. (group 6), Day 13, calculated based on tumor volume of Day 8): 46%
- Tumor Sizes (mm3) Mean [1, 8]: 724.03 mm3
- Relative tumor volume Mean ([1]; 100 mg/kg q.d. * 3W i.p. (group 6), Day 15, RTV=Vt/V0): 17.31
- Tumor growth inhibition (%) TGI ([1]; 100 mg/kg q.d. * 3W i.p. (group 6), Day 15, calculated based on tumor volume of Day 8): 32%
- Tumor Sizes (mm3) Mean [1, 9]: 2107.22 mm3
- Relative tumor volume Mean ([1]; 100 mg/kg q.d. * 3W i.p. (group 6), Day 18, RTV=Vt/V0): 50.47
- Tumor growth inhibition (%) TGI ([1]; 100 mg/kg q.d. * 3W i.p. (group 6), Day 18, calculated based on tumor volume of Day 8): 25%
- Tumor Sizes (mm3) Mean [1, 10]: 42.19 mm3
- reduction of tumor weight compared to the control group ([1]; high dose group, after 18 days of the experiment): ~50%
- anti-tumor activity against the B16-F10 syngeneic model (in words) [1, 11]: anti-tumor response; also recorded: significant anti-tumor activity; also recorded: inhibits the growth of cancer
- efficacy on tumor weight (in words) [1, 11]: significant efficacy on tumor weight
- Body weight (g) Mean ([2]; 10 mg/kg q.d. * 3W i.p., Day 1): 16.73 g
- Body weight (g) Mean ([2]; 10 mg/kg q.d. * 3W i.p., Day 4): 16.41 g
- Body weight (g) Mean ([2]; 10 mg/kg q.d. * 3W i.p., Day 5): 16.26 g
- Body weight (g) Mean ([2]; 10 mg/kg q.d. * 3W i.p., Day 6): 16.21 g
- Body weight (g) Mean ([2]; 10 mg/kg q.d. * 3W i.p., Day 8): 16.67 g
- Body weight (g) Mean ([2]; 10 mg/kg q.d. * 3W i.p., Day 11): 17.33 g
- Body weight (g) Mean ([2]; 10 mg/kg q.d. * 3W i.p., Day 13): 17.51 g
- Body weight (g) Mean ([2]; 10 mg/kg q.d. * 3W i.p., Day 15): 18.85 g
- Body weight (g) Mean ([2]; 10 mg/kg q.d. * 3W i.p., Day 18): 21.26 g
- Body weight (g) Mean ([2]; 30 mg/kg q.d. * 3W i.p., Day 1): 16.70 g
- Body weight (g) Mean ([2]; 30 mg/kg q.d. * 3W i.p., Day 4): 16.54 g
- Body weight (g) Mean ([2]; 30 mg/kg q.d. * 3W i.p., Day 5): 16.32 g
- Body weight (g) Mean ([2]; 30 mg/kg q.d. * 3W i.p., Day 6): 16.18 g
- Body weight (g) Mean ([2]; 30 mg/kg q.d. * 3W i.p., Day 8): 16.60 g
- Body weight (g) Mean ([2]; 30 mg/kg q.d. * 3W i.p., Day 11): 17.36 g
- Body weight (g) Mean ([2]; 30 mg/kg q.d. * 3W i.p., Day 13): 17.78 g
- Body weight (g) Mean ([2]; 30 mg/kg q.d. * 3W i.p., Day 15): 18.73 g
- Body weight (g) Mean ([2]; 30 mg/kg q.d. * 3W i.p., Day 18): 20.93 g
- Body weight (g) Mean ([2]; 100 mg/kg q.d. * 3W i.p. (group 6), Day 11): 17.20 g
- Body weight (g) Mean ([2]; 100 mg/kg q.d. * 3W i.p. (group 6), Day 13): 17.95 g
- Body weight (g) Mean [2, 8]: 18.78 g
- Body weight (g) Mean [2, 9]: 21.82 g
- Body weight (g) Mean [2, 10]: 17.36 g
- inhibition at 10 µM [3]: 66.9%
- inhibition at 10 µM [4]: -2.74%
- Tumor growth inhibition (%) TGI ([5]; Day 13, calculated based on tumor volume of Day 8): 39%
- Tumor growth inhibition (%) TGI ([5]; Day 15, calculated based on tumor volume of Day 8): 26%
- Tumor growth inhibition (%) TGI ([5]; Day 18, calculated based on tumor volume of Day 8): 18%
- solubility at 24 h ([6]; aqueous buffer pH 10.63, aqueous buffer, thermodynamic from solid, pH 10.63 buffer, 25° C., 24 hours, SIS3 hydrochloride salt, MO-00005 free base, read-out: Conc. Of Sample (ug/mL), aqueous solubility): 280 µg/mL
- aqueous solubility relative to the solubility of SIS3 ([6]; pH 10.63): 117 times
- inhibition at 10 µM ([7]; probe midazolam): 41.3%
- inhibition at 10 µM ([7]; probe testosterone): 2.22%

— patent publication US12090149B2, “SMAD3 inhibitors” (Moexa Pharmaceuticals Limited, priority 2018, dated 2024)
